Results as given in patent US8748170B2, “Polypeptides derived from cyclin B1 and uses thereof” (priority 2008, dated 2014).

System: CD4+T cells
Assay: CFSE dilution proliferation of CD4+ T cells in PBMC of heavy smokers
Format: cell-based, human
Settings: PBMC from 5 heavy smokers negative for lung cancer by CT; peptide approximately 2 μg/ml; 6 days; one or more of the peptides
Text: The amino acid sequence of the whole CB1 protein was synthesized as a series of peptides (generally 12-15 amino acids in length) that overlap by 11 amino acids (each peptide is offset by 4 amino acids). This approach is used when HLA of the subjects being tested is unknown and when there is a potential for multiple reactive peptides restricted by a variety of HLA molecules. It is also useful when the blood collection volumes are too small for dendritic cell generation, and other antigen presenting cells in the peripheral blood are counted on to present peptides without the need for further antigen processing.
Peripheral blood was collected into vaccutainers containing heparin sulfate and processed to obtain peripheral blood mononuclear cells (PBMC) by density centrifugation. PBMC were washed in PBS and labeled with 5 μM CFSE (Invitrogen) in warmed 0.1% FBS in PBS for 10 minutes at 37° C. The CFSE was quenched with 3 volumes of ice cold complete RPMI and incubated for 5 minutes before washes with complete RPMI. PBMC were then resuspended in media containing anti-CD28 and anti-CD49d antibodies for additional costimualtion. Wells coated with anti-CD3 were used as positive controls. Peptides were added at approximately 2 μg/ml. No peptide was added to negative control wells. After 6 days, cells were stained for cell surface markers and tested for proliferation by CFSE dilution using flow cytometry. Peptides that induced proliferation above that seen in the wells receiving no peptides were considered to be stimulatory.

Row | Sequence | CD4+ T cell proliferation in response to peptide, above background (no peptide)
1 | LQETMYMTVSIIDRF [Pep62, cyclin B1 amino acids 219-233] | show proliferation
2 | KFRLLQETMYMTVSI [Pep61, cyclin B1 amino acids 215-229] | show proliferation
3 | MYMTVSIIDRFM [Pep63, cyclin B1 amino acids 223-234] | show proliferation
